Measured values as given in US20260083126A1, “ANTIMICROBIAL COMPOSITIONS” (AHV International B.V., priority 2022, published 2026).
Converted amounts (≈) assume the structure as drawn. Like-named read-outs stand apart in the source and are kept apart here.

Legend:
[1] = tested on: Acinetobacter baumanni RUH875; assay: MIC assay; assay type: cell-based; settings: for MIC90 / MIC50: Acinetobacter
Procedure: (§1) The exact weighed amount was noted and the volume of solvent to reach a 80 mM dilution calculated. Half of the volume was added first, by adding Tween 80 and let stand for 5 minutes. In a second step, the other half of the volume DMSO was added and resuspended to help the dilution process. The closed tube was inverted 5-10 times and then vortexed very thoroughly for at least 30 seconds. If after this procedure crystals were still visible, the tube was placed in a shaker at 37° C. at 150 rpm for at least 30 minutes (it is indicated if the dissolution period was longer than 2 h). […] In case of Bis(4-Chlorophenyl) thiosulfonate, a lower concentrated stock solution of 2 mM needed to be prepared. For that, the required amount of compound was weighed in and 2% v/v Tween80 and 2% v/v DMSO of the end volume of the stock solution was added to the substance. This mix was heated in a water bath set to 40° C. and occasionally shaken. When the whole amount of the substance reached dissolution, the volume was filled up with growth medium until the end volume. This 2 mM stock solution of Bis(4-Chlorophenyl) thiosulfonate was used in the MIC plate and diluted two-fold, resulting in a testing range of Bis(4-Chlorophenyl) thiosulfonate from 1 mM to 0.002 mM.
(§2) The microorganisms as indicated in Table 4 were used to inoculate a tryptic soy agar (TSA) plate and incubated overnight at 37° C. After incubation 3-5 well-isolated colonies with the same morphology were selected from the TSA plate and resuspended in 2 mL 0.9% saline solution with 3-6 glass beads and vortexed. The optical density at 600 nm (OD600) of the bacterial suspension was measured with a spectrophotometer (Evolution™ 201/220 UV-Visible Spectrophotometer, Thermo Fisher Scientific) and diluted to an OD600 of 0.0008, which resembles 10^6 CFU/mL.
(§3) The MIC assay was performed in a flat-bottom 96-microtiter plate. 50 μL of MHB-II was added into columns 2-11, and 100 μL to column 12 for sterility control. 100 μL of the 8 mM test compound solution (method 1) was added to column 1. A two-fold dilution series of the solution in MHB-II was achieved by resuspending 50 μL of the 8 mM solution from column 1 to column 2. This step was repeated until column 10. The respective concentration of Tween 80 and DMSO in column 1 was 2.5%, which is two-fold diluted throughout the plate. 50 μL of the bacterial suspension was added to column 1-11. The microtiter plates were sealed with adhesive polyethylene film for sealing microplates (Diversified Biotech) and incubated for 24 h at 37° C. After incubation the OD was measured at 600 nm with the Varioskan (Thermo Fisher Scientific). The minimal concentration which causes reduction of final OD600 of the bacterial culture by 50% (MIC50) and by 90% (MIC90) was calculated after normalization of the obtained OD values to the growth control in column 11. This assay was repeated three times in three independent experiments.
(§4) Hereafter, the stock solutions of the compounds were used in three repetitions in a minimal inhibitory concentration (MIC) assay at a 2-fold dilution range with various bacteria from the gram-positive and gram-negative group and a yeast, Candida albicans. The concentrations that show only less than 10% growth after 24 h were considered the MIC90-values, whereas the concentrations that show 50% growth after 24 h when compared to the bacterial growth control were considered the MIC50-values. Escherichia coli and Staphylococcus aureus were used as representatives for a gram-negative bacteria and gram-positive bacteria, respectively. Furthermore, the yeast C. albicans was also tested.
(§5) In an Eppendorf tube between 10-20 mg of the test compound was weighed. Hereafter, the required amount of Tween 80 was added, followed by the amount DMSO. After vigorous shaking, the dissolved and transparent dilutions were diluted 10 times with Mueller Hinton Broth (MHB) for the MIC assay. […]

[2] = tested on: Streptococcus uberis ATCC 27985; assay: MIC assay; assay type: cell-based; settings: for MIC50 / MIC90: Streptococcus uberis, ATCC27985
Procedure: as §1, §2, §3, §4, §5

[3] = tested on: Staphylococcus aureus (MRSA) LUH14616; assay: MIC assay; assay type: cell-based; settings: for MIC50 / MIC90: Staphylococcus aureus, MRSA
Procedure: as §1, §2, §3, §4, §5

[4] = tested on: Streptococcus agalactiae ATCC 13813; assay: MIC assay; assay type: cell-based; settings: for MIC50 / MIC90: Streptococcus agalactiae, ATCC13813
Procedure: as §1, §2, §3, §4, §5

[5] = tested on: Staphylococcus epidermis ATCC 35984 biofilm; assay: MBIC assay (crystal violet); assay type: cell-based, Staphylococcus epidermidis; settings: 48 h at 37° C., absorbance 540 nm
Procedure: as §1
Frozen aliquots of Staphylococcus epidermis ATCC 35984 and Pseudomonas aeruginosa ATCC 27853 were used to inoculate a tryptic soy agar (TSA) plate and were incubated overnight at 37° C. After incubation 3-5 well-isolated colonies with the same morphology were selected from the TSA plate and resuspended in 2 ml 0.9% saline solution with 3-6 glass beads and vortexed. The optical density of the bacterial suspension was measured at 600 nm (OD600) with a spectrophotometer (Evolution™ 201/220 UV-Visible Spectrophotometer, Thermo Fisher Scientific) and diluted to an OD600 of 0.2. The MBIC assay was performed in a 96-microtiter plate. […] The solution was resuspended and transferred to a flat-bottom 96-well plate and the absorbance measured at 540 nm with the spectrophotometer. […]

[6] = RUH875, Example 2b, FIG. 1, no MIC90 detected in the tested range, read-out: Average MIC90 A. baumanni (Ab)
[7] = Example 2a, n = 3, RUH875, read-out: MIC90 Acinetobacter baumanni
[8] = Example 2a, n = 3, ATCC 27985, read-out: MIC90 Streptococcus uberis (+)
[9] = Example 2a, n = 3, LUH14616, read-out: MIC90 Staphylococcus aureus (+) (MRSA)
[10] = Example 2a, n = 3, ATCC 13813, read-out: MIC90 Streptococcus agalactiae (+)

MIC50 Acinetobacter baumanni ([1]; Example 2a, n = 3, RUH875)	MIC90 Acinetobacter baumanni ([1]; Example 2a, n = 3, RUH875)	MIC50 Streptococcus uberis (+) ([2]; Example 2a, n = 3, ATCC 27985)	MIC90 Streptococcus uberis (+) ([2]; Example 2a, n = 3, ATCC 27985)	MIC50 Staphylococcus aureus (+) (MRSA) ([3]; Example 2a, n = 3, LUH14616)	MIC90 Staphylococcus aureus (+) (MRSA) ([3]; Example 2a, n = 3, LUH14616)	MIC50 Streptococcus agalactiae (+) ([4]; Example 2a, n = 3, ATCC 13813)	MIC90 Streptococcus agalactiae (+) ([4]; Example 2a, n = 3, ATCC 13813)	Structure (SMILES)	S. epidermidis MBIC90 [5]	also measured
								Clc1ccc(SSc2ccc(Cl)cc2)cc1 [Bis (4-chlorophenyl) disulfide, Bis(4-chlorophenyl) disulfide]	>4 mM	MIC90 [1, 6]: > 1000 µM; MIC50 ([1]; Example 2a, n = 3, RUH875): > 4000 µM; MIC90 [1, 7]: > 4000 µM; MIC50 ([2]; Example 2a, n = 3, ATCC 27985): 20 µM (≈ 5.74 µg/mL); MIC90 [2, 8]: 50 µM (≈ 14.4 µg/mL); MIC90 ([2]; Example 2b, FIG. 1, no MIC90 detected in the tested range, read-out: Average MIC90 S. uberis (Su)): > 1000 µM; MIC50 ([3]; Example 2a, n = 3, LUH14616): < 8 µM; MIC90 [3, 9]: 190 µM (≈ 54.6 µg/mL); MIC90 ([3]; Example 2b, FIG. 1, no MIC90 detected in the tested range, read-out: Average MIC90 S. aureus (Sau)): > 1000 µM; MIC50 ([4]; Example 2a, n = 3, ATCC 13813): 10 µM (≈ 2.87 µg/mL); MIC90 [4, 10]: 70 µM (≈ 20.1 µg/mL); MIC90 ([4]; Example 2b, FIG. 1, no MIC90 detected in the tested range, read-out: Average MIC90 S. agalactiae (Sag)): > 1000 µM
2000 µM (≈ 541 µg/mL)	>4000 µM	420 µM (≈ 114 µg/mL)	1500 µM (≈ 405 µg/mL)	280 µM (≈ 75.7 µg/mL)	1770 µM (≈ 478 µg/mL)	1040 µM (≈ 281 µg/mL)	1670 µM (≈ 451 µg/mL)	[O-][S+](Sc1ccc(F)cc1)c1ccc(F)cc1 (stereo not drawn) [Bis (4-fluorophenyl) thiosulfinate, Bis(4-fluorophenyl) thiosulfinate]		
								Fc1ccc(SSc2ccc(F)cc2)cc1 [Bis (4-fluorophenyl) disulfide, Bis(4-fluorophenyl) disulfide]		MIC90 [1, 6]: > 4000 µM; MIC50 ([1]; Example 2a, n = 3, RUH875): 3000 µM (≈ 763 µg/mL); MIC90 [1, 7]: > 4000 µM; MIC50 ([2]; Example 2a, n = 3, ATCC 27985): 210 µM (≈ 53.4 µg/mL); MIC90 [2, 8]: 630 µM (≈ 160 µg/mL); MIC50 ([3]; Example 2a, n = 3, LUH14616): < 8 µM; MIC90 [3, 9]: 2330 µM (≈ 593 µg/mL); MIC50 ([4]; Example 2a, n = 3, ATCC 13813): 210 µM (≈ 53.4 µg/mL); MIC90 [4, 10]: 500 µM (≈ 127 µg/mL)
								CCCSS(=O)(=O)CCC [Di-n-propyl thiosulfonate, reference compound]	2 mM	
								CCCSSCCC [Di-n-propyl disulfide, reference compound]	4 mM	
2830 µM	>4000 µM	670 µM	1330 µM	<8 µM	1270 µM	1330 µM	1670 µM	O=S(=O)(Sc1ccc(F)cc1)c1ccc(F)cc1 [Bis (4-fluorophenyl) thiosulfonate, Bis(4-fluorophenyl) thiosulfonate]		

Structure (SMILES)	MIC50 Acinetobacter baumanni ([1]; Example 2a, n = 3, RUH875)	MIC90 Acinetobacter baumanni ([1]; Example 2a, n = 3, RUH875)	MIC50 Streptococcus uberis (+) ([2]; Example 2a, n = 3, ATCC 27985)	MIC90 Streptococcus uberis (+) ([2]; Example 2a, n = 3, ATCC 27985)	MIC50 Staphylococcus aureus (+) (MRSA) ([3]; Example 2a, n = 3, LUH14616)	MIC90 Staphylococcus aureus (+) (MRSA) ([3]; Example 2a, n = 3, LUH14616)	MIC50 Streptococcus agalactiae (+) ([4]; Example 2a, n = 3, ATCC 13813)	MIC90 Streptococcus agalactiae (+) ([4]; Example 2a, n = 3, ATCC 13813)	S. epidermidis MBIC90 [5]	also measured
O=S(=O)(Sc1ccc(Cl)cc1)c1ccc(Cl)cc1 [Bis (4-chlorophenyl) thiosulfonate, Bis(4-chlorophenyl) thiosulfonate]	>1000 µM	>1000 µM	60 µM	500 µM	60 µM	750 µM	160 µM	500 µM		
